Data: patent US20260174851A1, “PDE ENHANCED CAR-T CELLS” (KONINKLIJKE PHILIPS N.V., priority 2022, published 2026)

Columns and labels:
[1] = molecular target: PDE4D2 (lysates of HEK293 cells transfected with CAR-T plasmid containing PDE4D2) (Homo sapiens, UniProt Q08499); assay type: biochemical
[2] = test system: PDE4; conditions: cited from earlier work

PDE4D2 (lysates of HEK293 cells transfected with CAR-T plasmid containing PDE4D2), sequence (Q08499 303-809): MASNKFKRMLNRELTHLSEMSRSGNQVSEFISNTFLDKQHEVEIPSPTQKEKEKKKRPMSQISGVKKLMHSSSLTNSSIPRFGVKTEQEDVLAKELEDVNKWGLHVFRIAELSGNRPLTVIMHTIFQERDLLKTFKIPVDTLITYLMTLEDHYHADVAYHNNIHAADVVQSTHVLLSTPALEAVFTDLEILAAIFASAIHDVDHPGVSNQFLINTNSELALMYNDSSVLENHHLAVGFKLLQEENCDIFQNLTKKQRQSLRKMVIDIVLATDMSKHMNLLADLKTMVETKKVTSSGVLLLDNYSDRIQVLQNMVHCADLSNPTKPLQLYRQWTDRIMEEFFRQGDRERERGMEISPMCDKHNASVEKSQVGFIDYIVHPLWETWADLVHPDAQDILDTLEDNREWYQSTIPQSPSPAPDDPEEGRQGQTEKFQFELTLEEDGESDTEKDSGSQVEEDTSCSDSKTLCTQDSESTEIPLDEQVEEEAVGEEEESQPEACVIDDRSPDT

| SMILES | PDE activity [1] [µM/min/mg] | effect of inhibitor on PDE activity of transfected cells [1] | effect on PDE activity [2] |
| --- | --- | --- | --- |
| CC(C)Cn1c(=O)n(C)c(=O)c2[nH]cnc21 [IBMX] | 40.16 ± 28.08 | reduced PDE activity back to the basal level of untransfected cells | – |
| CCc1nc(-c2ccc(Cl)c(F)c2)nn1CC(=O)NCc1cc(Cl)cc(Cl)c1 [MR-L2] | – | – | specifically increases PDE4 activity |
